According to patent US9364454B2, “Anti-inflammatory actions of neuroprotectin D1/protectin D1 and its natural stereoisomers” (The Brigham and Women's Hospital, Inc., priority 2005, dated 2016):
“Also recorded” adds a separate entry of the source.

Experiments:
FVB male mice = experiment: Acute inflammatory exudates: zymosan A murine peritonitis (leukocyte infiltration); assay type: in vivo, mouse; details: for anti-inflammatory potency in vivo, PMN infiltration (in words): dose range tested (FIG. 6), lavage at 2 h; for kind of joint anti-inflammatory action of PD1 and RvE1: 10 ng/mouse i.p. of either or both, 2 h; for activity on PMN infiltration at higher doses / dose dependence (in words): higher doses (10 ng, 100 ng)
Experimental: Peritonitis was carried out using 6-8 week-old FVB male mice (Charles River Laboratories) fed laboratory Rodent Diet 5001 (Purina Mills) that were anesthetized with isoflurane, and compounds to be tested were administered intraperitoneally. […] Each compound tested or vehicle alone was suspended in 1 μl ethanol and mixed in sterile saline (120 μl). After intraperitoneal injections (either 2 or 4 hours of acute inflammation), the mice were sacrificed in accordance with the Harvard Medical Area Standing Committee on Animals protocol no. 02570, and peritoneal lavages were collected rapidly and placed in an ice bath (4° C.) for enumeration, differential counts, and further analysis.

[1] = test system: human PMN transmigration across endothelial cells; experiment: Human PMN transmigration across HMEC monolayers, LTB4-induced; assay type: cell-based; details: compound 15 min, LTB4 10^-8 M 90 min
Experimental: PMN were freshly isolated from whole blood obtained by venipuncture from healthy human donors (who denied taking medication for 2 weeks prior to donation; BWH protocol no. 88-02642) and anti-coagulated with acid citrate dextrose as in (40, 41). Briefly, plasma and mononuclear cells were removed by aspiration from the buffy coat after centrifugation (400 g; 20 min) at room temperature. Histopaque (density 1.077) was from Sigma-Aldrich (St. Louis, Mo.). RBCs were sedimented using 2% gelatin, and residual RBCs were removed by lysis in ice-cold NH4Cl buffer. The cell suspensions were >90% PMN as determined by light microscopic evaluation. PMN were suspended at 5×10^7 cells/ml in HBSS with 10 mM Hepes, pH 7.4, and without Ca^2+ or Mg^2+ (Sigma-Aldrich, St. Louis, Mo.). PMN were used within 2 hours of their isolation.
Human Microvascular Endothelial Cells (HMEC; a gift from Francisco Candal of the Centers for Disease Control, Atlanta, Ga.) were obtained as primary cultures. For preparation of experimental HMEC monolayers, confluent endothelial cells were grown on 0.33 cm^2 ring-supported polycarbonate filters (5 μm pore size; Costar Corp., Cambridge, Mass.) in the apical-to-basolateral direction. Cells were grown for ˜1 week prior to transmigration experiments.
Transmigration was conducted essentially as in ref. (41). PMN were incubated with either vehicle-containing buffer or compound for 15 minutes at 37° C. A chemotactic gradient was established by placing HMEC inserts that had been washed in HBSS with Ca^2+ and Mg^2+ (denoted +/+) in 10^−8M LTB4 in the lower chambers. Neutrophils (10^6 cells) were added to 50 μl HBSS +/+ in the upper chambers and cells were incubated at 37° C. for 90 min. Transmigrated PMN were quantified by assessing the PMN azurophilic marker myeloperoxidase and a calibration curve. PMN were lysed by the addition of Triton X-100 to a final concentration of 0.5%. The samples were acidified with citrate buffer (final concentration 100 mM, pH 4.2). An aliquot of each sample was added to an equal volume of ABTS solution (1 mM ABTS [2′-azino-bis(3-ethylbenzo-thiazoline-6-sulfonic acid)], 0.03% H2O2, 100 mM sodium citrate buffer, pH 4.2) in a 96-well plate. The resulting color was monitored using a plate reader at 405 nm and a calibration curve for cell number.

SMILES | rank order of potency (FVB male mice; 0.1 ng dose) | anti-inflammatory potency in vivo, PMN infiltration (in words) (FVB male mice) | rank order of potency (FVB male mice; 1-10 ng dose) | activity on PMN infiltration (in words) (FVB male mice; 1 ng/mouse dose) | other results
CC/C=C\C[C@H](O)\C=C/C=C/C=C/[C@@H](O)C/C=C\C/C=C\CCC(=O)O [Compound VI, 10S,17S-dihydroxy-docosa-4Z,7Z,11E,13E,15Z,19Z-hexaenoic-acid] | Compound VI>>PD1>10S,17S-DT (the double dioxygenation product)>the Δ15-trans-PD1>>Compound V | the most potent of these isomers in vivo |  |  | anti-inflammatory potency in vivo, PMN infiltration (in words) (FVB male mice; listed as compound VI): carries bioactivity; anti-inflammatory potency in vivo, PMN infiltration (in words) (FVB male mice; listed as isomer VI): ≧PD1
CC/C=C\C[C@H](O)\C=C/C=C/C=C/[C@H](O)C/C=C\C/C=C\CCC(=O)OC [PD1 methyl ester] |  |  | PD1≈PD1 methyl ester>>Δ15-trans PD1>10S,17S-diHDHA (isomer I) |  | 
CC/C=C\C[C@@H](O)\C=C/C=C/C=C/[C@@H](O)C/C=C\C/C=C\CCC(=O)O [Compound V, 10S,17R,-dihydroxy-docosa-4Z,7Z,11E,13E,15Z,19Z-hexaenoic-acid] | Compound VI>>PD1>10S,17S-DT (the double dioxygenation product)>the Δ15-trans-PD1>>Compound V | essentially without activity |  |  | anti-inflammatory potency in vivo, PMN infiltration (in words) (FVB male mice; listed as compound V): essentially inactive in vivo
CC[C@@H](O)/C=C/C=C\C[C@@H](O)/C=C/C=C/C=C\[C@@H](O)CCCC(=O)O [RvE1, 5S,12R,18R-trihydroxy-6Z,8E,10E,14Z,16E-eicosapentaenoic acid, reference compound] |  |  |  |  | kind of joint anti-inflammatory action of PD1 and RvE1 (FVB male mice): additive rather than synergistic; kind of joint anti-inflammatory action of PD1 and RvE1 (FVB male mice; listed as resolvin E1): additive; PMN infiltration, PD1 and RvE1 administered together (in words) (FVB male mice; 10 ng/mouse i.p., exudates at 2 h): reduced the infiltration of PMN
CC/C=C\C[C@H](O)/C=C/C=C\C=C\[C@H](O)C/C=C\C/C=C\CCC(=O)O [Compound IV, 10R,17S-dihydroxy-docosa-4Z,7Z,11E,13Z,15E,19Z-hexaenoic-acid] |  |  |  | essentially equipotent | activity on PMN infiltration at higher doses / dose dependence (in words) (FVB male mice): did not increase potency in a dose-dependent fashion
CCC=CCC(O)C=CC=CC=CC(O)CC=CCC=CCCC(=O)OC (centres unmarked) [methyl ester of Compound VI] |  | potent regulator of PMN infiltration |  |  | 
CC/C=C\C[C@H](O)/C=C/C=C\C=C\[C@@H](O)C/C=C\C/C=C\CCC(=O)O [Compound I, 10S,17S-dihydroxy-docosa-4Z,7Z,11E,13Z,15E,19Z-hexaenoic acid] | Compound VI>>PD1>10S,17S-DT (the double dioxygenation product)>the Δ15-trans-PD1>>Compound V | nor did it carry potent actions; also recorded: substantially less potent; also recorded: PD1 (Compound II)>>10S,17S-diHDHA (Compound I); also recorded: possesses some anti-inflammatory activity in vivo, albeit proved to be much less potent than natural or synthetic PD1 | PD1≈PD1 methyl ester>>Δ15-trans PD1>10S,17S-diHDHA (isomer I) | did display some activity | activity on PMN infiltration (in words) (FVB male mice; 0.1 ng dose, compared to PD1): not active; activity on PMN infiltration at higher doses / dose dependence (in words) (FVB male mice): blocked PMN infiltration, but it was less potent than PD1; also recorded: did not increase with higher doses in a statistically significant fashion
CC/C=C\C[C@H](O)/C=C/C=C/C=C/[C@H](O)C/C=C\C/C=C\CCC(=O)O [Compound III, 10R,17S-dihydroxy-docosa-4Z,7Z,11E,13E,15E,19Z-hexaenoic-acid] | Compound VI>>PD1>10S,17S-DT (the double dioxygenation product)>the Δ15-trans-PD1>>Compound V | possesses little bioactivity in vitro or in vivo | PD1≈PD1 methyl ester>>Δ15-trans PD1>10S,17S-diHDHA (isomer I) | substantially less potent | effect on LTB4-induced PMN transmigration (in words) [1]: possesses little bioactivity in vitro or in vivo; effect on LTB4-induced PMN transmigration (in words) ([1]; listed as 415-trans-PD1): essentially inactive; effect on LTB4-induced PMN transmigration (in words) ([1]; listed as Δ15-trans isomer of PD1): did not block PMN transmigration in vitro
CC/C=C\C[C@H](O)C#C/C=C/C=C/[C@H](O)C/C=C\C/C=C\CCC(=O)O [15,16-dehydro-PD1] |  |  |  |  | PMN infiltration (in words) (FVB male mice; 10 ng/mouse, 4 h after injection (FIG. 9)): retained activity in vivo; also recorded: slightly less potent than the native PD1; also recorded: reduced PMN infiltration; also recorded: Statistically different from *zymosan A-injected mice; also recorded: less potent; recruitment of monocytes and lymphocytes to exudates (in words) (FVB male mice; peritonitis, differential counts): increased the non-phlogistic recruitment of monocytes and lymphocytes
